Legend:
[1] = Mouse pharmacokinetics of prodrug after oral gavage; assay type: in vivo, Balb/c male mice; conditions: single PO dose 100 mg/kg
Experimental: Pharmacokinetics test was carried out in order to confirm the change from invented prodrugs to parent compounds in vivo. Balb/c male mice are dosed with a prodrug by oral gavages. A single administration of a prodrug is given and a dose volume of 10 mL/kg is used for PO doses.
Blood samples are collected in lithium heparin coated tubes at 10, 20, 30, 60, 120 min. Plasma is isolated by centrifugation and frozen before analysis. Plasma samples are prepared by liquid-liquid extraction with Ethyl acetate containing internal standard. Quantification is by using a LC-MS/MS method specific to the selected compound. Animals that had been dosed the selected compound were analyzed for prodrug and the parent compound. Pharmacokinetics parameters are calculated using WinNonLinnon compartmental analysis software.

yeast HSP90 = yeast HSP90 (Saccharomyces cerevisiae, UniProt P02829); experiment: Hsp90 ATPase assay (malachite green); assay type: biochemical
Experimental: (§1) For present invention, the ATPase activity of yeast HSP90 was measured using malachite green assay. Formula I compounds for primary antitumoral activity were treated in human colorectal cancer cells (HCT116) showing increased expression levels of HSP90 client protein and cotoxicity IC50 values was measured as a result.

[2] = tested on: human colorectal cancer cells (HCT116); experiment: Growth inhibition assay (cytotoxicity) in HCT116; assay type: cell-based; conditions: HCT-116
Experimental: as §1

[3] = tested on: A2780 Human ovarian cancer cells; experiment: In vivo antitumor efficacy, A2780 subcutaneous xenograft; conditions: 200 mg/kg po qdx5, 2 weeks, A2780 xenograft in female Balb/c nude mice
Experimental: A2780 Human ovarian cancer cells were established as subcutaneous xenografts by injection of 8×10^6 cells into the flanks of adult female Balb/c nude mice. Mice with established tumors (50-200 mm^3) were selected for study (n=3-6/treatment group). The test compounds were formulated in ethanol-PEG400-DW and administered orally (po) at a dose of 200 mg/kg. The vehicle alone was administered to control groups. Animals were dosed 5 days per week (Monday through Friday) for 2 consecutive weeks. Animals were weighed and tumor size was determined twice weekly by caliper measurements, and tumor volumes were calculated (volume=[l×w^2]/2(mm^3), where l and w refer to the larger and smaller dimensions collected at each measurement). The mean tumor volumes of each group were calculated. The change in mean treated tumor volume was divided by the change in mean control tumor volume, multiplied by 100 and subtracted from 100% to give the tumor growth inhibition for each group.

yeast HSP90, sequence (P02829 whole entry): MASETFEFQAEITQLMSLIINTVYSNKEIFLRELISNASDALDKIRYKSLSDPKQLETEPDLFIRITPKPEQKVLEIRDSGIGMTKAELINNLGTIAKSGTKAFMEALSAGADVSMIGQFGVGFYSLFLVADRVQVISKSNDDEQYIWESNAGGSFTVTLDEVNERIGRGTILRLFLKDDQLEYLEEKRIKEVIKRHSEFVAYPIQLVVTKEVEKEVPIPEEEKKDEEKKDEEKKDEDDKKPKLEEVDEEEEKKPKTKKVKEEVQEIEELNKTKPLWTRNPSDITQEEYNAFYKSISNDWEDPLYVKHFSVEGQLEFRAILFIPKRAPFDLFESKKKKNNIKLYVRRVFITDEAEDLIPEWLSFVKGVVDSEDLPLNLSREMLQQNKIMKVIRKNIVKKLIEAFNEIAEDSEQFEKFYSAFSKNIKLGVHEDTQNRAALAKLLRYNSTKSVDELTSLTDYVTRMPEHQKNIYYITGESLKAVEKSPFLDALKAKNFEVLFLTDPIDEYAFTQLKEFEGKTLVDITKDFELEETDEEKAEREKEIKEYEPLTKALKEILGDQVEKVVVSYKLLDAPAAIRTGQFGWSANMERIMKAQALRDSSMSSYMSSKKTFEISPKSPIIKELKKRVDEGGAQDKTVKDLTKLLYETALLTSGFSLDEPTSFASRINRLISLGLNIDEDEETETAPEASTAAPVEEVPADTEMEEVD

| Structure (SMILES) | exposure of the active pharmaceutical agent (I-97) relative to the starting dose [1] | IC50 (yeast HSP90) | IC50 [2] | % TGI [3] |
| --- | --- | --- | --- | --- |
| CCNC(=O)c1noc(-c2cc(C(C)C)c(OC(=O)[C@@H]3CCCN3C(=O)OC(C)(C)C)cc2OC(=O)C2CCCN2C(=O)OC(C)(C)C)c1-c1ccn(C)n1 (stereo partly drawn) [II-8, (2S,2′S)-1-tert-Butyl^′2,2-4-(3-(ethylcarbamoyl)-4-(1-methyl-1H-pyrazol-3-yl)isoxazol-5-yl)-6-isopropyl-1,3-phenylene dipyrrolidine-1,2-dicarboxylate] | optimal exposure | – | – | – |
| CCNC(=O)c1noc(-c2cc(C(C)C)c(O)cc2O)c1-c1noc(N(C)C)n1 [Compound I-72, 5-(2,4-Dihydroxy-5-isopropylphenyl)-4-(5-(dimethylamino)-1,2,4-oxadiazol-3-yl)-N-ethylisoxazole-3-carboxamide] | – | < 500 nM | < 500 nM | – |
| CCNC(=O)c1noc(-c2cc(C(C)C)c(O)cc2O)c1-c1noc(-c2cccs2)n1 [Compound I-77, 5-(2,4-Dihydroxy-5-isopropylphenyl)-N-ethyl-4-(5-(thiophen-2-yl)-1,2,4-oxadiazol-3-yl)isoxazole-3-carboxamide] | – | 500 to 1000 nM | < 500 nM | – |
| CCNC(=O)c1noc(-c2cc(C(C)C)c(O)cc2O)c1-c1noc(N2CCCC2)n1 [Compound I-69, 5-(2,4-Dihydroxy-5-isopropylphenyl)-N-ethyl-4-(5-(pyrrolidin-1-yl)-1,2,4-oxadiazol-3-yl)isoxazole-3-carboxamide] | – | 500 to 1000 nM | < 500 nM | – |
| CCNC(=O)c1noc(-c2cc(C(C)C)c(O)cc2O)c1-c1ccn(C)n1 [Compound I-97, 5-(2,4-Dihydroxy-5-isopropylphenyl)-N-ethyl-4-(1-methyl-1H-pyrazol-3-yl)isoxazole-3-carboxamide] | – | 500 to 1000 nM | < 500 nM | – |
| CCNC(=O)c1noc(-c2cc(C(C)C)c(O)cc2O)c1-c1noc(CC)n1 [Compound I-62, 5-(2,4-Dihydroxy-5-isopropylphenyl)-N-ethyl-4-(5-ethyl-1,2,4-oxadiazol-3-yl)isoxazole-3-carboxamide] | – | < 500 nM | < 500 nM | – |
| CCNC(=O)c1noc(-c2cc(C(C)C)c(O)cc2O)c1-c1noc(C(=O)N2CCOCC2)n1 [Compound I-67, 5-(2,4-Dihydroxy-5-isopropylphenyl)-N-ethyl-4-(5-(morpholine-4-carbonyl)-1,2,4-oxadiazol-3-yl)isoxazole-3-carboxamide] | – | 500 to 1000 nM | 500 to 1000 nM | – |
| CCNC(=O)c1noc(-c2cc(C(C)C)c(O)cc2O)c1-c1cc(CNCCO)no1 [Compound I-22, 5-(2,4-Dihydroxy-5-isopropylphenyl)-N-ethyl-3′-((2-hydroxyethylamino)methyl)-4,5′-biisoxazole-3-carboxamide] | – | 500 to 1000 nM | < 500 nM | – |
| CCNC(=O)c1noc(-c2cc(C(C)C)c(O)cc2O)c1-c1cc(CN2CCN(C)CC2)no1 [Compound I-43, 5-(2,4-Dihydroxy-5-isopropylphenyl)-N-ethyl-3′-((4-methylpiperazin-1-yl)methyl)-4,5′-biisoxazole-3-carboxamide] | – | 500 to 1000 nM | < 500 nM | – |
| CCNC(=O)c1noc(-c2cc(C(C)C)c(O)cc2O)c1-c1noc(C)n1 [Compound I-60, 5-(2,4-Dihydroxy-5-isopropylphenyl)-N-ethyl-4-(5-methyl-1,2,4-oxadiazol-3-yl) isoxazole-3-carboxamide] | – | < 500 nM | < 500 nM | 50% |
| CCNC(=O)c1noc(-c2cc(C(C)C)c(O)cc2O)c1-c1ccnn1C [Compound I-98, 5-(2,4-Dihydroxy-5-isopropylphenyl)-N-ethyl-4-(1-methyl-1H-pyrazol-5-yl)isoxazole-3-carboxamide] | – | < 500 nM | < 500 nM | – |
| CCNC(=O)c1noc(-c2cc(C(C)C)c(O)cc2O)c1-c1noc(CN2CCOCC2)n1 [Compound I-92, 5-(2,4-Dihydroxy-5-isopropylphenyl)-N-ethyl-4-(5-(morpholinomethyl)-1,2,4-oxadiazol-3-yl)isoxazole-3-carboxamide] | – | 500 to 1000 nM | < 500 nM | – |

Further lines, with some results ahead:

| exposure of the active pharmaceutical agent (I-97) relative to the starting dose [1] | IC50 (yeast HSP90) | Structure (SMILES) | IC50 [2] | % TGI [3] |
| --- | --- | --- | --- | --- |
| – | 500 to 1000 nM | CCNC(=O)c1noc(-c2cc(C(C)C)c(O)cc2O)c1-c1cc(CN2CCOCC2)no1 [Compound I-18, 5-(2,4-Dihydroxy-5-isopropylphenyl)-N-ethyl-3′-(morpholinomethyl)-4,5′-biisoxazole-3-carboxamide] | < 500 nM | – |
| – | < 500 nM | CCNC(=O)c1noc(-c2cc(C(C)C)c(O)cc2O)c1-c1noc(C2CCCC2)n1 [Compound I-88, 4-(5-Cyclopentyl-1,2,4-oxadiazol-3-yl)-5-(2,4-dihydroxy-5-isopropylphenyl)-N-ethylisoxazole-3-carboxamide] | < 500 nM | – |
| – | 500 to 1000 nM | CCNC(=O)c1noc(-c2cc(C(C)C)c(O)cc2O)c1-c1cc(C#N)no1 [Compound I-48, 3′-Cyano-5-(2,4-dihydroxy-5-isopropylphenyl)-N-ethyl-4,5′-biisoxazole-3-carboxamide] | < 500 nM | – |
| – | < 500 nM | CCNC(=O)c1noc(-c2cc(C(C)C)c(O)cc2O)c1-c1cn[nH]c1 [Compound I-103, 5-(2,4-Dihydroxy-5-isopropylphenyl)-N-ethyl-4-(1H-pyrazol-4-yl)isoxazole-3-carboxamide] | < 500 nM | – |
| – | < 500 nM | CCNC(=O)c1noc(-c2cc(C(C)C)c(O)cc2O)c1-c1cc(C(=O)NC)no1 [Compound I-56, 5-(2,4-Dihydroxy-5-isopropylphenyl)-N^3-ethyl-N^3′-methyl-4,5′-biisoxazole-3,3′-dicarboxamide] | < 500 nM | – |
| – | 500 to 1000 nM | CCNC(=O)c1noc(-c2cc(C(C)C)c(O)cc2O)c1-c1noc(CN(C)C)n1 [Compound I-93, 5-(2,4-Dihydroxy-5-isopropylphenyl)-4-(5-((dimethylamino)methyl)-1,2,4-oxadiazol-3-yl)-N-ethylisoxazole-3-carboxamide] | < 500 nM | – |
